The term viability denotes a read-out of living cells in per cent, often relative to untreated cells.

The first data set is described as follows: in vitro. Particulars: human, hela cells, % viability.
On to `Cn1cncc1C(=O)N1CCc2ccccc21` [CBK200412], for which the viability at 28.5 h, 10 µM worked out at 86.7%. Take `O=C(OCCc1c[nH]c2ccccc12)N1CCOCC1` [CBK200415]: the viability at 28.5 h, 10 µM worked out at 106%.

On to `C[C@@H]1CN(C(=O)OCCc2ccsc2)C[C@H](C)O1` [CBK200417], for which the viability at 28.5 h, 10 µM is 89.3%. On the same count and under the same terms, in the case of `CCSc1ccccc1-c1nc2c(=O)n(C)c(-c3ccc(CN4CCCC4)cc3)cc2o1` [CBK200426T] it was 77.9%; in that of `Cn1c(-c2ccc(CN3CCCC3)cc2)cc2oc(-c3ccccc3SCCO)nc2c1=O` [CBK200427T], 94.7%; in that of `O=c1[nH]c(=O)n([C@H]2C[C@H](O)[C@@H](CO)O2)cc1I` [CBK200650], 96.5%. Same read-out and setting: in the case of `COc1ccc(Cn2c(C)nc3ccccc32)cc1` [CBK201156] it was 116%; in that of `O=c1[nH]cc([C@H]2C[C@@H](O)[C@@H](CO)O2)c(=O)[nH]1` [CBK201158], 95.4%; in that of `O=c1ccn([C@@H]2O[C@H](CO)[C@H](O)C2O)c(=O)[nH]1` (stereo partly shown) [CBK201159], 95.1%. Same read-out and setting: in the case of `Nc1nc(=O)n([C@@H]2O[C@H](CO)[C@H](O)C2O)cc1CO` (stereo partly shown) [CBK201160] it was 92.7%; in that of `Nc1nc(=O)n([C@H]2C[C@@H](O)[C@@H](CO)O2)cc1Br` [CBK201161], 97.1%. With `Nc1ncnc2c1nc(OCc1ccccc1)n2C1CC(O)C(CO)O1` (stereo not shown) [CBK201164], the viability at 28.5 h, 10 µM was 94.9%.

Regarding `Cc1ccc(S(=O)(=O)OC[C@H]2O[C@@H](n3cc(C)c(=O)[nH]c3=O)C[C@H]2O)cc1` [CBK201165], the viability at 28.5 h, 10 µM stood at 88.1%.

As for `Nc1n[nH]c(=O)c2c1ncn2[C@H]1C[C@@H](O)[C@@H](CO)O1` [CBK201169], the viability at 28.5 h, 10 µM is 93.7%. As to `Cn1cc([C@H]2C[C@@H](O)[C@@H](CO)O2)c(=O)[nH]c1=O` [CBK201171], the viability at 28.5 h, 10 µM was determined as 88.9%. On the same count and under the same terms, in the case of `O=c1[nH]cc([C@@H]2O[C@H](CO)[C@H](O)C2O)c(=O)[nH]1` (stereo partly shown) [CBK201172] it was 103%; in that of `O=C(O)/C=C/c1cn([C@H]2C[C@@H](O)[C@@H](CO)O2)c(=O)[nH]c1=O` [CBK201174], 92.9%; in that of `[N-]=[N+]=Nc1nc2c(N)ncnc2n1C1CC(O)C(CO)O1` (stereo not shown) [CBK201178], 95.2%. Take `O=c1[nH]c(=O)n([C@@H]2O[C@H](CO)[C@H](O)C2O)cc1Br` (stereo partly shown) [CBK201180]: the viability at 28.5 h, 10 µM is 87.2%. On the same count and under the same terms, in the case of `OCC1OC(n2cnc3c(Oc4ccccc4)ncnc32)CC1O` (stereo not shown) [CBK201181] it was 91.5%; in that of `Nc1ncnc2c1nc1n2[C@H]2C[C@@H](O)[C@H](O2)[C@H]1O` [CBK201183], 96.2%. `Nc1ccn([C@H]2C[C@@H](O)[C@@H](CO)O2)c(=S)n1` [CBK201187]: the viability at 28.5 h, 10 µM amounted to 91.4%. Still for that read-out and setting: in the case of `O=C(/C=C/c1cn([C@H]2C[C@@H](O)[C@@H](CO)O2)c(=O)[nH]c1=O)ON1C(=O)CCC1=O` [CBK201188] it was 99.3%; in that of `Nc1nc2c(ccn2[C@@H]2O[C@H](CO)[C@H](O)C2O)c(=O)[nH]1` (stereo partly shown) [CBK201190], 92%; in that of `Cn1cc([C@@H]2O[C@H](CO)[C@H](O)C2O)c(=O)n(C)c1=O` (stereo partly shown) [CBK201191], 97.1%.

As to `O=C1NC2=NOCCC2=CN1[C@H]1C[C@@H](O)[C@@H](CO)O1` [CBK201192], the viability at 28.5 h, 10 µM is 96.8%.

Take `Nc1nc(Cl)c2ncn([C@H]3C[C@@H](O)[C@@H](CO)O3)c2n1` [CBK201193]: the viability at 28.5 h, 10 µM is 100%. The same measure, in the same setting: in the case of `O=c1ncccn1[C@@H]1O[C@H](CO)[C@H](O)C1O` (stereo partly shown) [CBK201195] it was 94%; in that of `Cc1cn(C2CC(O)C(CNC(=O)C(F)(F)F)O2)c(=O)[nH]c1=O` (stereo not shown) [CBK201200], 98%. Regarding `Nc1ccn(C2CC(O)C(CO)O2)c(=O)n1` (stereo not shown) [CBK201203], the viability at 28.5 h, 10 µM was 95.4%. Same read-out and setting: in the case of `Nc1ncc([C@@H]2O[C@H](CO)[C@H](O)C2O)c(=O)[nH]1` (stereo partly shown) [CBK201205] it was 78.1%. For `C[C@H]1CN([C@H]2C[C@@H](O)[C@@H](CO)O2)C(=O)NC1=O` [CBK201206], the viability at 28.5 h, 10 µM came out at 96.9%.

Consider `Nc1nc(N)c2ncn([C@H]3C[C@@H](O)[C@@H](CO)O3)c2n1` [CBK201208], for which the viability at 28.5 h, 10 µM is 97.4%. Same read-out and setting: in the case of `COC1C(O)C(CO)OC1n1cc(I)c(=O)[nH]c1=O` (stereo not shown) [CBK201211] it was 95.1%; in that of `COC1C(O)C(CO)OC1n1ccc(NC(=O)c2ccccc2)nc1=O` (stereo not shown) [CBK201212], 94.8%; in that of `O=C(/C=C/c1cn(C2CC(O)C(CO)O2)c(=O)[nH]c1=O)NCCNC(=O)C(F)(F)F` (stereo not shown) [CBK201214], 98.2%.

Regarding `C=CCOc1nc2c(=O)[nH]c(NC(=O)C(C)C)nc2n1[C@H]1C[C@@H](O)[C@@H](CO)O1` [CBK201216], the viability at 28.5 h, 10 µM is 100%. Regarding `Cc1cc2cn([C@@H]3O[C@H](CO)[C@H](O)C3O)c(=O)nc2[nH]1` (stereo partly shown) [CBK201219], the viability at 28.5 h, 10 µM came out at 98%. Consider `O=C(Nc1ncnc2c1nc(OCc1ccccc1)n2C1CC(O)C(CO)O1)c1ccccc1` (stereo not shown) [CBK201220], for which the viability at 28.5 h, 10 µM was 95.3%. The same measure, in the same setting: to `Nc1nc(=O)n([C@H]2C[C@@H](O)[C@@H](CO)O2)cc1O` [CBK201221] belongs 98.2%. As to `Nc1ncnc2c1nc1n2[C@@H]2O[C@H](C1)[C@H](O)C2O` (stereo partly shown) [CBK201224], the viability at 28.5 h, 10 µM was 108%.

Consider `O=c1[nH]cnc2c1ncn2[C@H]1C[C@@H](O)[C@@H](CO)O1` [CBK201225], for which the viability at 28.5 h, 10 µM was determined as 99.5%. The same measure, in the same setting: in the case of `Nc1nc(=O)n([C@H]2C[C@@H](O)[C@@H](CO)O2)cc1I` [CBK201226] it was 90.4%; in that of `COC1C(O)C(CO)OC1n1cc(C)c(N)nc1=O` (stereo not shown) [CBK201227], 108%; in that of `COCc1cn(C2CC(O)C(CO)O2)c(=O)[nH]c1=O` (stereo not shown) [CBK201230], 99.8%. Still for that read-out and setting: to `Cc1cn(C2CC(O)C(C3N(c4ccccc4)CCN3c3ccccc3)O2)c(=O)[nH]c1=O` (stereo not shown) [CBK201232] belongs 99.2%. With `Nc1n[nH]c(=O)c2ncn([C@H]3C[C@@H](O)[C@@H](CO)O3)c12` [CBK201233], the viability at 28.5 h, 10 µM was found to be 91.4%. The same measure, in the same setting: to `Cc1cnc(Cl)c2ncn([C@H]3C[C@@H](O)[C@@H](CO)O3)c12` [CBK201234] belongs 97.7%. The same measure, in the same setting: in the case of `O=c1nc2c(cn1[C@H]1C[C@@H](O)[C@@H](CO)O1)Sc1ccccc1N2` [CBK201237] it was 100%. Still for that read-out and setting: to `Nc1nc2c(ccn2[C@H]2C[C@@H](O)[C@@H](CO)O2)c(=O)[nH]1` [CBK201238] belongs 100%; to `NC1=NC(=O)N([C@H]2C[C@@H](O)[C@@H](CO)O2)CN1` [CBK201248], 108%.

Regarding `O=C(NC/C=C/c1cn(C2CC(O)C(CO)O2)c(=O)[nH]c1=O)C(F)(F)F` (stereo not shown) [CBK201249], the viability at 28.5 h, 10 µM turned out to be 109%. On to `Nc1ncnc2c1ncn2[C@@H]1O[C@H](CCl)[C@H](O)C1O` (stereo partly shown) [CBK201252], for which the viability at 28.5 h, 10 µM is 98.8%. Take `COC1C(O)C(CO)OC1n1cc(F)c(=O)[nH]c1=O` (stereo not shown) [CBK201253]: the viability at 28.5 h, 10 µM worked out at 91.4%. The same measure, in the same setting: to `O=C1C=C([C@@H]2O[C@H](CO)[C@H](O)C2O)C(=O)N1` (stereo partly shown) [CBK201255] belongs 101%; to `Cc1cn(C2CC(O)C(CN=[N+]=[N-])O2)c(=O)[nH]c1=O` (stereo not shown) [CBK201256], 102%; to `CC#Cc1cn([C@H]2C[C@@H](O)[C@@H](CO)O2)c(=O)nc1N` [CBK201257], 105%. Still for that read-out and setting: to `NCCCCCCNc1ncnc2c1ncn2[C@H]1C[C@@H](O)[C@@H](CO)O1` [CBK201260] belongs 105%. Still for that read-out and setting: in the case of `CC(C)C(=O)Nc1nc2c(nc(OCc3ccccc3)n2C2CC(O)C(CO)O2)c(=O)[nH]1` (stereo not shown) [CBK201264] it was 91.8%. Regarding `Cc1cn([C@@H]2O[C@H](CO)[C@H](O)C2O)c(=O)[nH]c1=O` (stereo partly shown) [CBK201265], the viability at 28.5 h, 10 µM came to 101%. On to `COC1C(O)C(CO)OC1n1cc(F)c(SC)nc1=O` (stereo not shown) [CBK201267], for which the viability at 28.5 h, 10 µM worked out at 106%. Consider `COc1nc(N)nc2c1ncn2C1OC(CO)C(O)C1O` (stereo not shown) [CBK201271], for which the viability at 28.5 h, 10 µM was determined as 91.6%.

In the case of `CN(C)/C=N/c1ncnc2c1nc(Br)n2C1CC(O)C(CO)O1` (stereo not shown) [CBK201277], the viability at 28.5 h, 10 µM came to 93.6%. On the same count and under the same terms, in the case of `C#CCOc1cn([C@H]2C[C@@H](O)[C@@H](CO)O2)c(=O)[nH]c1=O` [CBK201278] it was 91.7%. Same read-out and setting: to `COC1C(O)C(CO)OC1n1cc(F)c(Oc2c(C)cc(C)cc2C)nc1=O` (stereo not shown) [CBK201279] belongs 98.2%. Same read-out and setting: in the case of `Cc1cn2c(nc1=O)OC[C@H]1O[C@@H]2C[C@H]1O` [CBK201280] it was 93.5%. Consider `Nc1nc(=O)[nH]c2c1ncn2[C@@H]1O[C@H](CO)[C@H](O)C1O` (stereo partly shown) [CBK201282], for which the viability at 28.5 h, 10 µM turned out to be 93.7%. On the same count and under the same terms, in the case of `CN(C)/C=N/c1nc(=O)[nH]c2c1ncn2C1CC(O)C(CO)O1` (stereo not shown) [CBK201285] it was 118%; in that of `Nc1nc2c(sc(=O)n2[C@@H]2O[C@H](CO)[C@H](O)C2O)c(=O)[nH]1` (stereo partly shown) [CBK201286], 96%. The same measure, in the same setting: in the case of `O=C1CCN([C@H]2C[C@@H](O)[C@@H](CO)O2)C(=O)N1` [CBK201288] it was 93.8%; in that of `COC1C(O)C(CO)OC1n1cnc2cnc(N)nc21` (stereo not shown) [CBK201290], 84.9%; in that of `Nc1nc2c([C@@H]3O[C@H](CO)[C@H](O)C3O)c[nH]c2c(=O)[nH]1` (stereo partly shown) [CBK201292], 94.5%.

As for `Nc1ccn([C@@H]2O[C@H](CO)[C@H](O)C2O)c(=S)n1` (stereo partly shown) [CBK201293], the viability at 28.5 h, 10 µM was 90.9%. On the same count and under the same terms, in the case of `CN(C)c1nc2c(ncn2C2OC(CO)C(O)C2O)c(=O)[nH]1` (stereo not shown) [CBK201295] it was 96.3%.

The data set is the same for the next values; noted with them: human, hela cells, % viability, bulk resorufin, single well.
For the molecule `Nc1ncnc2c1ncn2[C@@H]1O[C@H](CO)[C@H](O)C1O` (stereo partly shown) [CBK201199], the viability at 28.5 h, 10 µM came out at 95.8%.

For the molecule `NC(=O)C1=CN([C@@H]2O[C@H](CO)[C@H](O)C2O)C2N=CN=C(N)C12` (stereo partly shown) [CBK201209], the viability at 28.5 h, 10 µM is 0.996%.
